# In patent US8211945B2, “Carba-sugar amine derivative and glycolipid metabolic disorder treating agent containing the same as active ingredient” (Seikagaku Corporation, priority 2001, dated 2012):
# Where a chain is given by its changes, count along the chain named.
# Experiments:
# Experiment in all cases: Mutant β-galactosidase activity in model cells, 4 days culture
# Type in all cases: cell-based
# [1] = biological target: T1, human mutant β-galactosidase T82M (Homo sapiens, UniProt P16278, T82M)
# T1 construct: expressed in transfected cells; host or cells: SV40-immortalized skin fibroblasts of a β-galactosidase-deficient knockout mouse
# T1 sequence (P16278 29-677 T82M): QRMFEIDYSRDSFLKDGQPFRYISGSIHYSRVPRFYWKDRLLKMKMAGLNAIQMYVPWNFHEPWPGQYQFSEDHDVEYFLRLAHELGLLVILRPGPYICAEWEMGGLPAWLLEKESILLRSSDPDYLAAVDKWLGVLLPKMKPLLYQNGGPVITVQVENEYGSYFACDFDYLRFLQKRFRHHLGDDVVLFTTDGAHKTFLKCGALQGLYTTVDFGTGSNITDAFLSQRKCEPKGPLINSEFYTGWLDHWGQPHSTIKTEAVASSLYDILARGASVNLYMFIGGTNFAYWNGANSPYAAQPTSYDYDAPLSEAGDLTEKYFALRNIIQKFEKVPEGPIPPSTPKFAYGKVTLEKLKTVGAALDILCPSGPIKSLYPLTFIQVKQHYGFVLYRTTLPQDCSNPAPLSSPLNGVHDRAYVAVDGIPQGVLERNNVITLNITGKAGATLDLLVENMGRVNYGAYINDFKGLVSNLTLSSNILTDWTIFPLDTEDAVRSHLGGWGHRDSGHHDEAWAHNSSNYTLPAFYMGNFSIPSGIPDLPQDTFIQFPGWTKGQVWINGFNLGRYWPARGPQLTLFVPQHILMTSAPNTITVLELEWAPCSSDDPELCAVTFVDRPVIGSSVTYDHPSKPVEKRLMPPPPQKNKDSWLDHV
# [2] = biological target: T2, human mutant β-galactosidase W273L (Homo sapiens, UniProt P16278, W273L)
# T2 construct: expressed in transfected cells; host or cells: SV40-immortalized skin fibroblasts of a β-galactosidase-deficient knockout mouse
# T2 sequence (P16278 29-677 W273L): T1 sequence (P16278 29-677 T82M) with M54T, W245L
# [3] = biological target: T3, human mutant β-galactosidase Y83H (Homo sapiens, UniProt P16278, Y83H)
# T3 construct: expressed in transfected cells; host or cells: SV40-immortalized skin fibroblasts of a β-galactosidase-deficient knockout mouse
# T3 sequence (P16278 29-677 Y83H): T1 sequence (P16278 29-677 T82M) with M54T, Y55H
"enzyme activity, Control ([1]; transferred gene T82M, control substance 0.5 mM NB-DGJ)","enzyme activity, Control ([2]; transferred gene W273L, control substance 0.5 mM NB-DGJ)","enzyme activity, Control ([3]; transferred gene Y83H, control substance 0.5 mM NB-DGJ)",Compound,"Relative ratio (×100%) ([1]; T82M, substance 18 vs control)","enzyme activity ([1]; transferred gene T82M, 0.2 μM, 4 days)","enzyme activity increased in comparison with the control ([2]; W273L, 0.2 μM) [%]","Relative ratio (×100%) ([2]; W273L, substance 18 vs control)","enzyme activity ([2]; transferred gene W273L, 0.2 μM, 4 days)","enzyme activity increased in comparison with the control ([3]; Y83H, 0.2 μM) [%]","Relative ratio (×100%) ([3]; Y83H, substance 18 vs control)","enzyme activity ([3]; transferred gene Y83H, 0.2 μM, 4 days)"
,,,"CCCCCCCCN[C@@H]1C=C(CO)[C@H](O)C(O)[C@@H]1O (stereo partly drawn) [Substance 18, N-octyl-5a-carba-α-L-arabino-hexo-5(5a)-enopyranosylamine]",0.88 ×100%,0.59,≥ 150,1.50 ×100%,17.71,≥ 150,2.27 ×100%,20.16
0.67,11.83,8.89,"CCCCN1C[C@H](O)[C@@H](O)[C@@H](O)[C@H]1CO [Control, N-(n-butyl)-deoxygalactonojirimycin, reference compound]",,,,,,,,
